Assay results taken from patent publication US20220326125A1, “BIOLOGICAL TISSUE STAINING REAGENT, BIOLOGICAL TISSUE STAINING KIT AND BIOLOGICAL TISSUE STAINING METHOD” (CUBICStars, Inc., priority 2019, published 2022).

How the values were obtained:
[1] = test system: defatted mouse cerebral hemisphere; test: 3D immunostaining with combinations of additives; conditions: Immunostaining Buffer E; antibodies against synaptophysin, Gad67, Dat or Th; 32° C., 3 to 4 days
Source text: Fab-anti-mouse or rabbit IgG against each primary antibody, labeled with Alexa 594 (manufactured by Jackson ImmunoResearch laboratories; Fab-anti-mouse IgG1-[…] (#115-587-185), Fab-anti-mouse IgG2a-[…] (#115-587-186), or Fab-anti-rabbit IgG-[…] (#111-587-008), added such that the weight ratio to each primary antibody was about 1:0.75); and predetermined concentrations of additives (two or three selected from #0854, #1086, and #0609 described in FIG. 1A and #0146 described in FIG. 1B).

[2] = test system: defatted column of the cerebral cortex area of pig brain; test: Evaluation of antibody penetration efficiency (peak-bottom ratio), anti-synaptophysin antibody; conditions: 2.5% by weight in Immunostaining Buffer E vs distilled water, 32° C., 1 day
Experimental: After the defatting treatment, the sample was washed with PBS, and soaked in Immunostaining Buffer E that was mixed with a mouse monoclonal anti-synaptophysin antibody (manufactured by Medical & Biological Laboratories Co., Ltd.; #D073-3; 20 μg/mL) and Fab-anti-mouse IgG1 labeled with Alexa 594 (added such that the weight ratio to the anti-synaptophysin antibody was about 1:1) and further supplemented with 2.5% by weight Quadrol or the same amount of distilled water. The sample was stained at 32° C. for 1 day. After the staining, the sample was washed with PB-Triton and PB, and a frozen section in the central portion of the sample was prepared.
FIGS. 18A and B show images of the frozen sections of the samples stained with Immunostaining Buffer E to which distilled water or Quadrol, respectively, was added. […] For quantification, a representative area showing almost uniform staining of the left and right sides of the column was selected using a micrographic image, and a brightness-value graph was prepared. In the graph, the ratio (peak-bottom ratio) of the maximum brightness (peak) in the left and right to the minimum brightness (bottom) in the sample was high in the sample to which Quadrol was not added. […] Thus, using the peak-bottom ratio as a quantitative index of penetrability of an antibody into a tissue, a search was carried out for compounds as follows. […]

| SMILES | penetration-promoting effect for the antibodies / staining performance inside the sample [1] | penetration of the antibody [2] |
| --- | --- | --- |
| CN(C)CCOCCO [#0146, 2-[2-(Dimethylamino)ethoxy]ethanol] | even stronger penetration-promoting effect |  |
| CC(O)CN(CCN(CC(C)O)CC(C)O)CC(C)O (centres unmarked) [Quadrol, N,N,N′,N′-tetrakis(2-hydroxypropyl)ethylenediamine] |  | penetration of the antibody was effectively increased |
